Drawing on patent US20220033396A1, “FURTHER HETEROAROMATIC COMPOUNDS HAVING ACTIVITY AGAINST RSV” (priority 2018, published 2022), this text covers EC50 and CC50 for 22 molecules.

One series has as its system rgRSV224 virus. The experiment in a line: microbe, parasite or virus in culture. In kind it is cell-based. Particulars: human respiratory syncytial virus, 72 h; rgRSV224 virus (MOI=1), HeLa cells, GFP expression three days post-virus exposure; averaged data of several repeat experiments; read-out: RSV HELA EC50.
Another series in a line: in vitro. Particulars: human.

A word on the EC50: it is the concentration giving half of the maximal effect.

Where only a bound is given, the exact number is not on record here.

Regarding `C[C@@H]1c2ccsc2CCN1C(=O)c1cc(C2CC2)c2nc(-c3ccc(N4CC[C@H](C(N)=O)C4)nc3F)cn2c1` (single isomer, unassigned) [Compound 23, (3S)-1-(5-{8-cyclopropyl-6-[(4*R)-4-methyl-4,5,6,7-tetrahydrothieno[3,2-c]pyridine-5-carbonyl]imidazo[1,2-a]pyridin-2-yl}-6-fluoropyridin-2-yl)pyrrolidine-3-carboxamide], the EC50 with rgRSV224 virus was 0.18 µM. The molecule also showed a CC50 at 3 days in the series “in vitro” of 34.7 µM.

Consider `CC1c2ccsc2CCN1C(=O)c1cc(C2CC2)c2nc(-c3ccc(NC(=O)N4CC[C@@H](O)C4)cc3F)cn2n1` (single isomer, unassigned) [Compound 38, (R)-N-(4-(8-cyclopropyl-6-((R*)-4-methyl-4,5,6,7-tetrahydrothieno[3,2-c]pyridine-5-carbonyl)imidazo[1,2-b]pyridazin-2-yl)-3-fluorophenyl)-3-hydroxypyrrolidine-1-carboxamide], for which the concentration for a half-maximal effect (EC50) in the series with rgRSV224 virus turned out to be 0.012 µM. The CC50 at 3 days in “in vitro” was found to be 35.9 µM.

As for `CCc1cc(C(=O)N2CCc3sc(F)cc3C2C)nn2cc(-c3ccc(NC(=O)N4CC[C@@H](O)C4)cc3F)nc12` (single isomer, unassigned) [Compound 40, (R)-N-(4-(8-ethyl-6-((R*)-2-fluoro-4-methyl-4,5,6,7-tetrahydrothieno[3,2-c]pyridine-5-carbonyl)imidazo[1,2-b]pyridazin-2-yl)-3-fluorophenyl)-3-hydroxypyrrolidine-1-carboxamide], the 50% effective concentration (EC50) with rgRSV224 virus was determined as 0.017 µM. The molecule further yielded a CC50 at 3 days in the series “in vitro” of 29.9 µM.

In the case of `CCc1cc(C(=O)N2CCc3ccc(F)cc3C2C)nn2cc(-c3ccc(NC(=O)N4CC[C@@H](O)C4)cc3F)nc12` (single isomer, unassigned) [Compound 41, (R)-N-(4-(8-ethyl-6-((R*)-7-fluoro-1-methyl-1,2,3,4-tetrahydroisoquinoline-2-carbonyl)-imidazo[1,2-b]pyridazin-2-yl)-3-fluorophenyl)-3-hydroxypyrrolidine-1-carboxamide], the EC50 in the series with rgRSV224 virus amounted to 0.026 µM. For the same molecule, in the series “in vitro”, the CC50 at 3 days is 26.8 µM.

On to `C[C@@H]1c2ccccc2CCN1C(=O)c1cc(C2CC2)c2nc(-c3ccc(C(=O)O)cc3F)cn2c1` [Compound 1, 4-{8-Cyclopropyl-6-[(1R)-1-methyl-1,2,3,4-tetrahydroisoquinoline-2-carbonyl]imidazo[1,2-a]pyridin-2-yl}-3-fluorobenzoic Acid], for which the EC50 with rgRSV224 virus is 0.51 µM. Further, in the series “in vitro”, the CC50 at 3 days stood at 60.4 µM.

On to `C[C@@H]1c2ccccc2CCN1C(=O)c1cc(C2CC2)c2nc(-c3ccc(C(N)=O)cc3F)cn2c1` [Compound 2, 4-{8-Cyclopropyl-6-[(1R)-1-methyl-1,2,3,4-tetrahydroisoquinoline-2-carbonyl]imidazo[1,2-a]pyridin-2-yl}-3-fluorobenzamide], for which the EC50 with rgRSV224 virus was 0.072 µM. The CC50 at 3 days in the series “in vitro” was found to be 54 µM.

Turning to `C[C@@H]1c2ccccc2CCN1C(=O)c1cc(C2CC2)c2nc(-c3ccc(N)cc3F)cn2c1` [Compound 3, 4-{8-Cyclopropyl-6-[(1R)-1-methyl-1,2,3,4-tetrahydroisoquinoline-2-carbonyl]imidazo[1,2-a]pyridin-2-yl}-3-fluoroaniline], the EC50 in the series with rgRSV224 virus was 0.054 µM. Also, in the series “in vitro”, the CC50 at 3 days amounted to 68 µM.

Turning to `C[C@@H]1c2ccccc2CCN1C(=O)c1cc(C2CC2)c2nc(-c3ccc(NC(=O)N4CC[C@H](O)C4)cc3F)cn2c1` [Compound 4, (3S)-N-(4-{8-Cyclopropyl-6-[(1R)-1-methyl-1,2,3,4-tetrahydroisoquinoline-2-carbonyl]imidazo[1,2-a]pyridin-2-yl}-3-fluorophenyl)-3-hydroxypyrrolidine-1-carboxamide], the EC50 in the series on rgRSV224 virus amounted to 0.035 µM. The CC50 at 3 days in “in vitro” came to 51.4 µM.

On to `C[C@@H]1c2ccccc2CCN1C(=O)c1cc(C2CC2)c2nc(-c3ccc(NC(=O)N4CC[C@@H](O)C4)cc3F)cn2c1` [Compound 5, (3R)-N-(4-{8-Cyclopropyl-6-[(1R)-1-methyl-1,2,3,4-tetrahydroisoquinoline-2-carbonyl]imidazo[1,2-a]pyridin-2-yl}-3-fluorophenyl)-3-hydroxypyrrolidine-1-carboxamide], for which the EC50 with rgRSV224 virus was found to be 0.048 µM. This molecule also yielded a CC50 at 3 days in the series “in vitro” of 40.1 µM.

For `C[C@@H]1c2ccccc2CCN1C(=O)c1cc(C2CC2)c2nc(-c3ccc(N4CC[C@H](C(=O)O)C4)cc3F)cn2c1` [Compound 9, (3S)-1-(4-{8-Cyclopropyl-6-[(1R)-1-methyl-1,2,3,4-tetrahydroisoquinoline-2-carbonyl]imidazo[1,2-a]pyridin-2-yl}-3-fluorophenyl)pyrrolidine-3-carboxylic Acid], the EC50 with rgRSV224 virus was 0.045 µM. Also, the CC50 at 3 days in “in vitro” is 68.4 µM.

On to `C[C@@H]1c2ccccc2CCN1C(=O)c1cc(C2CC2)c2nc(-c3ccc(N4CC[C@H](C(N)=O)C4)cc3F)cn2c1` [Compound 10, (3S)-1-(4-{8-Cyclopropyl-6-[(1R)-1-methyl-1,2,3,4-tetrahydroisoquinoline-2-carbonyl]imidazo[1,2-a]pyridin-2-yl}-3-fluorophenyl)pyrrolidine-3-carboxamide], for which the EC50 with rgRSV224 virus was 0.049 µM. Further, the CC50 at 3 days in the series “in vitro” came to 70.4 µM.

As for `CNC(=O)[C@H]1CCN(c2ccc(-c3cn4cc(C(=O)N5CCc6ccccc6[C@H]5C)cc(C5CC5)c4n3)c(F)c2)C1` [Compound 11, (3S)-1-(4-{8-Cyclopropyl-6-[(1R)-1-methyl-1,2,3,4-tetrahydroisoquinoline-2-carbonyl]imidazo[1,2-a]pyridin-2-yl}-3-fluorophenyl)-N-methylpyrrolidine-3-carboxamide], in the series with rgRSV224 virus, the EC50 was 0.062 µM. Further, the CC50 at 3 days in the series “in vitro” is > 100 µM.

With `C[C@@H]1c2ccccc2CCN1C(=O)c1cc(C2CC2)c2nc(-c3ccc(N4CC[C@H](O)C4)cc3F)cn2c1` [Compound 12, (3S)-1-(4-{8-Cyclopropyl-6-[(1R)-1-methyl-1,2,3,4-tetrahydroisoquinoline-2-carbonyl]imidazo[1,2-a]pyridin-2-yl}-3-fluorophenyl)pyrrolidin-3-ol], in the series with rgRSV224 virus, the EC50 turned out to be 0.169 µM. In “in vitro”, this molecule had a CC50 at 3 days of 67.7 µM.

Consider `C[C@@H]1CCCCCN1C(=O)c1cc(C2CC2)c2nc(-c3ccc(N4CC[C@H](C(N)=O)C4)cc3F)cn2c1` [Compound 15, (3S)-1-(4-{8-Cyclopropyl-6-[(2R)-2-methylazepane-1-carbonyl]imidazo[1,2-a]pyridin-2-yl}-3-fluorophenyl)pyrrolidine-3-carboxamide], for which the EC50 with rgRSV224 virus came out at 1.07 µM. Also, the CC50 at 3 days in the series “in vitro” was found to be 13.2 µM.

As to `C[C@@H]1c2ccccc2CCN1C(=O)c1cc(-c2ccccc2)c2nc(-c3ccc(N4CC[C@H](C(N)=O)C4)cc3F)cn2c1` [Compound 16, (3S)-1-(3-Fluoro-4-{6-[(1R)-1-methyl-1,2,3,4-tetrahydroisoquinoline-2-carbonyl]-8-phenylimidazo[1,2-a]pyridin-2-yl}phenyl)pyrrolidine-3-carboxamide], the concentration giving a half-maximal response (EC50) in the series with rgRSV224 virus turned out to be 0.186 µM. The CC50 at 3 days in “in vitro” was 93.6 µM.

For `C[C@@H]1c2ccccc2CCN1C(=O)c1cc(-c2cccnc2)c2nc(-c3ccc(N4CC[C@H](C(N)=O)C4)cc3F)cn2c1` [Compound 17, (3S)-1-(3-Fluoro-4-{6-[(1R)-1-methyl-1,2,3,4-tetrahydroisoquinoline-2-carbonyl]-8-(pyridin-3-yl)imidazo[1,2-a]pyridin-2-yl}phenyl)pyrrolidine-3-carboxamide], the 50% effective concentration (EC50) in the series on rgRSV224 virus is 0.163 µM. Moreover, the CC50 at 3 days in “in vitro” stood at 44.3 µM.

Turning to `C[C@@H]1c2ccccc2CCN1C(=O)c1cc(N(C)C)c2nc(-c3ccc(N4CC[C@H](C(N)=O)C4)cc3F)cn2c1` [Compound 19, (3S)-1-{4-[8-(Dimethylamino)-6-[(1R)-1-methyl-1,2,3,4-tetrahydroisoquinoline-2-carbonyl]imidazo[1,2-a]pyridin-2-yl]-3-fluorophenyl}pyrrolidine-3-carboxylamide], the concentration for a half-maximal effect (EC50) in the series on rgRSV224 virus came to 0.141 µM. The CC50 at 3 days in “in vitro” came out at 43.9 µM.

In the case of `C[C@@H]1c2ccccc2CCN1C(=O)c1cc(N2CCCC2)c2nc(-c3ccc(N4CC[C@H](C(N)=O)C4)cc3F)cn2c1` [Compound 20, (3S)-1-(3-Fluoro-4-{6-[(1R)-1-methyl-1,2,3,4-tetrahydroisoquinoline-2-carbonyl]-8-(pyrrolidin-1-yl)imidazo[1,2-a]pyridin-2-yl}phenyl)pyrrolidine-3-carboxamide], the concentration giving a half-maximal response (EC50) in the series on rgRSV224 virus was 0.149 µM. Also, in the series “in vitro”, the CC50 at 3 days is > 100 µM.

Regarding `Cc1c(-c2ccc(N3CC[C@H](C(N)=O)C3)cc2F)nc2c(C3CC3)cc(C(=O)N3CCc4ccccc4[C@H]3C)cn12` [Compound 21, (3S)-1-(4-{8-Cyclopropyl-3-methyl-6-[(1R)-1-methyl-1,2,3,4-tetrahydroisoquinoline-2-carbonyl]imidazo[1,2-a]pyridin-2-yl}-3-fluorophenyl)pyrrolidine-3-carboxamide], the EC50 with rgRSV224 virus was 0.638 µM. Further, the CC50 at 3 days in the series “in vitro” was 35 µM.

For `C[C@@H]1c2ccccc2CCN1C(=O)c1cc(C2CC2)c2nc(-c3ccc(N4CC[C@H](C(N)=O)C4)nc3F)cn2c1` [Compound 22, (3S)-1-(5-{8-Cyclopropyl-6-[(1R)-1-methyl-1,2,3,4-tetrahydroisoquinoline-2-carbonyl]imidazo[1,2-a]pyridin-2-yl}-6-fluoropyridin-2-yl)pyrrolidine-3-carboxamide], in the series on rgRSV224 virus, the EC50 worked out at 0.171 µM. Besides, the CC50 at 3 days in “in vitro” turned out to be 37.4 µM.

For `C[C@@H]1c2ccccc2CCN1C(=O)c1cc(C2CC2)c2nc(-c3ccc(-n4cc(C(=O)O)cn4)cc3F)cn2c1` [Compound 25, 1-(4-{8-Cyclopropyl-6-[(1R)-1-methyl-1,2,3,4-tetrahydroisoquinoline-2-carbonyl]imidazo[1,2-a]pyridin-2-yl}-3-fluorophenyl)-1H-pyrazole-4-carboxylic Acid], the EC50 in the series on rgRSV224 virus was 0.369 µM. In “in vitro”, this molecule returned a CC50 at 3 days of 51.3 µM.

As for `C[C@@H]1c2ccccc2CCN1C(=O)c1cc(C2CC2)c2nc(-c3ccc(-n4cc(C(N)=O)cn4)cc3F)cn2c1` [Compound 26, 1-(4-{8-Cyclopropyl-6-[(1R)-1-methyl-1,2,3,4-tetrahydroisoquinoline-2-carbonyl]imidazo[1,2-a]pyridin-2-yl}-3-fluorophenyl)-1H-pyrazole-4-carboxamide], the 50% effective concentration (EC50) in the series with rgRSV224 virus was determined as 0.202 µM. In “in vitro”, this molecule yielded a CC50 at 3 days of 42.7 µM.
